Data published in paper PMC9820444, “Design and Synthesis of Acridine-Triazole and Acridine-Thiadiazole Derivatives and Their Inhibitory Effect against Cancer Cells” (International Journal of Molecular Sciences, 2022).
Where two headings read alike, the source gives them in different places. Marks after values point to notes of the source that are not given here.

Experiments:
[1] = tested on: bladder cancer cells (T24); assay: MTT antiproliferative assay, T24; type: cell-based, human; details: read-out: Effect against cell viability (IC50), T24
Method: (§1) All newly synthesized acridinyl derivatives (4–6) were screened for their anticancer activities in comparison to the reference compounds, 5-FU and cis-platinum. Compounds 4–6 were tested for their in vitro antitumor activities against HFF, MGC-803, BEL-7404, NCI-H460, and T24 tumor cell lines, and human normal liver cells (LO2), and the results are shown in Table 1. Most of the compounds had strong selective potency against MGC-803 and T24 cancer cells. […] In the T24 cell line assay, many compounds, especially the series of compound 4, had significant activity against T24. This implies that there is a significant increase in potency after the introduction of the aroyl thiourea group. […] To our delight, most 1,2,4-triazolethiones (5) and 1,2,4-thiadiazoles (6) have low toxicity to LO2 compared with the positive control.
(§2) Test samples, including compounds 4–6 and commercial classical anticancer drugs (5-FU and cis-platinum), were screened for their anti-cancer activity against HFF human foreskin fibroblast cells, MGC-803 human gastric cancer cells, BEL-7404 human hepatocellular carcinoma cells, NCI-H460 human large cell carcinoma cells, and T24 human bladder carcinoma cells using the 3-(4,5-dimethylthiazol-2-yl)-2,5-diphenyltetrazoliumbromide (MTT) assay method cited in the literature. The initial concentration of all the test samples was 100 μg/mL, which was serially diluted in complete medium with ten-fold dilutions to give six concentrations per compound. Their cytotoxicity was determined in 96-well flat bottomed microtiter plates. All the test samples were tested in triplicate. The results were expressed as the drug concentration that inhibited cell growth by 50% as compared to the controls (IC50). The IC50 values were calculated from regression lines obtained from the percent cell growth inhibition plotted as a function of the logarithm of the dose.

[2] = tested on: subintestinal veins (SIVs) in zebrafish embryos; assay: Zebrafish angiogenesis assay (subintestinal veins, NBT/BCIP staining); type: in vivo; details: 1 mg/mL; for area of blood vessels: additional blood vessels were formed on the blood vessel edge
Excerpt: Currently, the zebrafish has emerged as a valuable model organism to substitute traditional models for studying angiogenesis inhibitors. The genes of zebrafish show 70–80% similarity to humans, and the vascular structure of zebrafish has high similarity to that of other vertebrates. Therefore, the subintestinal veins (SIVs) in the zebrafish embryos are used as evaluation indicators for anti-angiogenesis inhibitors. In this study, NBT/BCIP vascular staining was used to observe the angiogenesis effect of representative drugs (4h, 4f, 5d, 5h, 6g and 6h) in a zebrafish model. […] Compared with the blank control group, the area of the meshed pattern vessel and the number of vascular branches in the network decreased after the administration of compounds 4h, 5d, 5h and 6h.
The 24 hpf zebrafish embryos were dechorionated with a 1 gL^−1 pronase treatment and maintained in distilled water in 12-well cell culture plates (each well contained 20 embryos). A negative control group containing zebrafish embryos in distilled water and a vehicle treatment group that was treated with 2% dimethyl sulfoxide (DMSO) were prepared. The anti-angiogenic compounds were diluted to 1 mg/mL. After incubating at 28 °C for […], the embryos were immersed in 4% paraformaldehyde and dehydrated by gradient ethanol. Subsequently, the embryos were balanced in NTMT buffer (5 M NaCl + 1 M Tris [pH 9.0–9.5] + 1 M MgCl2+ 10% Tween), and nitrotetrazolium blue chloride (NBT) and p-toluidine salt (BCIP) staining were performed. To evaluate the effect of compounds on the angiogenesis of zebrafish embryos, the growth of embryonic sub-intestinal veins (SIVs) at 72 hpf was observed using an IX71 Olympus microscope (Hamburger, Germany). The length of the SIVs was calculated using the image J 1.8.0 software (Bethesda, MD, USA).

zebrafish embryos = tested on: zebrafish embryos; design: mortality rate of zebrafish embryos: dose or concentration left out as unconfirmed; details: for MAR (malformation rate) / MOR (mortality rate): zebrafish embryos 72 hpf
Method: In this experiment, 2% DMSO was used to dissolve the target products, and the abnormal rate (MAR) and mortality rate (MOR) of zebrafish embryos (72 hpf) were used for statistics.
The zebrafish embryos were collected at 6 hpf and randomly divided into naive control (embryos maintained in distilled water), vehicle control (embryos treated with 2% DMSO), and drug groups. Stock solutions of all drugs were prepared in 2% DMSO as a solubilizing agent and diluted to three concentrations (0.5 mg/mL, 1 mg/mL, and 2 mg/mL). Each group had 20 embryos per test concentration. […] Each compound was evaluated in three independent biological experiments.

[3] = tested on: human normal liver cells (LO2); assay: Cytotoxicity against normal liver cells LO2; type: cell-based; details: MTT, read-out: Effect against cell viability (IC50), LO2
Method: as §1, §2

[4] = tested on: human gastric cancer cells-803 (MGC-803); assay: MTT antiproliferative assay, MGC-803; type: cell-based; details: read-out: Effect against cell viability (IC50), MGC-803
Method: as §1, §2

[5] = tested on: human foreskin fibroblasts (HFF); assay: MTT antiproliferative assay, HFF; type: cell-based; details: read-out: Effect against cell viability (IC50), HFF
Method: as §1, §2

[6] = tested on: hepatocellular carcinoma bel-7404 (BEL-7404); assay: MTT antiproliferative assay, BEL-7404; type: cell-based, human; details: read-out: Effect against cell viability (IC50), BEL-7404
Method: as §1, §2

[7] = tested on: large cell lung cancer cells (NCI-H460); assay: MTT antiproliferative assay, NCI-H460; type: cell-based, human; details: read-out: Effect against cell viability (IC50), NCI-H460
Method: as §1, §2

[8] = target: T1, DNA topoisomerase I (topo I) (Bos taurus, UniProt F1MN93); assay: Topo I inhibitory activity (pBR322); type: biochemical; details: at 100 µM
T1 construct: purchased Takara Bio Inc. (Shiga, Japan)
T1 sequence (F1MN93 1-767): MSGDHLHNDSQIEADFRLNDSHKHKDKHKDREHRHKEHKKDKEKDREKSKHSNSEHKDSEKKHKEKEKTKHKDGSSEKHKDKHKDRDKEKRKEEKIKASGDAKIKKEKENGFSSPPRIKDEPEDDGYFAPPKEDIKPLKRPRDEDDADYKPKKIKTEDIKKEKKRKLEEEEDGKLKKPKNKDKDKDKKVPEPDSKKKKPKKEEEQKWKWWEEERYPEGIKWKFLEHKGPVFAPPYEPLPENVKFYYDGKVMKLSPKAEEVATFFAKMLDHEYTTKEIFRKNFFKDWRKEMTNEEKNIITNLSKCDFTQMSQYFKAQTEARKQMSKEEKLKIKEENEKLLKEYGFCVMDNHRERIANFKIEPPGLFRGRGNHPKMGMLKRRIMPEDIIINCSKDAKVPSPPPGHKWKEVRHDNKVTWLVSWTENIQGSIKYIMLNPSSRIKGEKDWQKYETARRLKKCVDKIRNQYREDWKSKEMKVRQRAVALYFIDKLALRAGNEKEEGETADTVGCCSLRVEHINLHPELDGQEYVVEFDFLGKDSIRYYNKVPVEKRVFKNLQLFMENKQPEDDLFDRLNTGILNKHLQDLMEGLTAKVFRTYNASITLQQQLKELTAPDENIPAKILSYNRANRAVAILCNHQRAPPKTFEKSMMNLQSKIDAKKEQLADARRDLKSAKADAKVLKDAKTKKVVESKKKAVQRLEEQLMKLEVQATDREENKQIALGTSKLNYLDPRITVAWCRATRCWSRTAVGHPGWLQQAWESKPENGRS

Structure (SMILES)	IC50 ([1]; Homo sapiens)	IC50 ([4]; Homo sapiens, MGC-803, MTT)	melting point	IC50 ([6]; Homo sapiens)	IC50 ([7]; Homo sapiens)	IC50 [1]	IC50 [3]	IC50 ([4]; MTT)	IC50 [5]	IC50 [6]	IC50 [7]	IC50 ([3]; Homo sapiens)	IC50 ([5]; Homo sapiens, Fibroblast)	also measured
COc1ccc2[nH]c3ccccc3c(=NC(=S)NNC(=O)c3ccncc3)c2c1 [4a, 1-2′-methoxyl acridinyl-3-4′-pyridinamide thiourea]						> 100 µM	22 ± 1.71 µM	10.9 ± 1.82 µM	75.8 ± 3.52 µM	26.9 ± 2.58 µM	36.4 ± 3.12 µM			area of blood vessels ([2]; zebrafish embryos): could reduce the area of blood vessels; MAR (malformation rate) (zebrafish embryos; 1 mg/mL): 85% ^c; MOR (mortality rate) (zebrafish embryos; 1 mg/mL): 15% ^c; MAR (malformation rate) (zebrafish embryos; 1.5 mg/mL): 60% ^c; MOR (mortality rate) (zebrafish embryos; 1.5 mg/mL): 40% ^c; MAR (malformation rate) (zebrafish embryos; 2 mg/mL): 55% ^c; MOR (mortality rate) (zebrafish embryos; 2 mg/mL): 45% ^c; total mortality and malformation rate (zebrafish embryos; zebrafish embryos, 2.0 mg.L^−1): 100%
COc1ccc2[nH]c3ccccc3c(=NC(=S)NNC(=O)c3ccc(Cl)cc3)c2c1 [4e]						10.3 ± 1.07 µM	10.2 ± 1.12 µM	25.6 ± 1.97 µM	66.8 ± 4.52 µM	25.9 ± 2.17 µM	73.2 ± 3.67 µM			topo I inhibitory activity [8]: potent
COc1ccc(-c2n[nH]c(=S)n2-c2c3ccccc3nc3ccc(OC)cc23)cc1 [5c, 4-(2-methoxyacridin-9-yl)-5-(4-methoxyphenyl)-2,4-dihydro-3H-1,2,4-triazole-3-thione]	29.3 ± 1.91 µM	15.1 ± 0.98 µM	262 to 267 °C	28.7 ± 2.24 µM	36.5 ± 3.92 µM							> 100 µM	75.5 ± 2.92 µM	topo I inhibitory activity [8]: potent
COc1ccc(-n2c(-c3c4ccccc4nc4ccc(C)cc34)n[nH]c2=S)cc1 [5h, 4-(4-methoxyphenyl)-4-(2-methylacridin-9-yl)-2,4-dihydro-3H-1,2,4-triazole-3-thione]						11.2 ± 1.16 µM	37.7 ± 2.47 µM	10.9 ± 0.97 µM	68.1 ± 2.64 µM	40.3 ± 2.06 µM	26.3 ± 2.51 µM			reduction in the vessel length (SIVs) compared to the mean vessel length for the controls ([2]; 72 hpf zebrafish embryos): ~50%; area of the meshed pattern vessel and number of vascular branches in the network ([2]; zebrafish embryos, compared with blank control group): decreased; mortality rate of zebrafish embryos (zebrafish embryos): ~0%; malformation rate of zebrafish embryos (zebrafish embryos; 2.0 mg.L^−1): less than 15%; MAR (malformation rate) (zebrafish embryos; 1 mg/mL): 5% ^a; MOR (mortality rate) (zebrafish embryos; 1 mg/mL): 0%; MAR (malformation rate) (zebrafish embryos; 1.5 mg/mL): 10% ^a; MOR (mortality rate) (zebrafish embryos; 1.5 mg/mL): 0%; MAR (malformation rate) (zebrafish embryos; 2 mg/mL): 15% ^a; MOR (mortality rate) (zebrafish embryos; 2 mg/mL): 0%

Further lines, with some results ahead:

IC50 ([1]; Homo sapiens)	IC50 ([4]; Homo sapiens, MGC-803, MTT)	melting point	IC50 ([6]; Homo sapiens)	IC50 ([7]; Homo sapiens)	Structure (SMILES)	IC50 [1]	IC50 [3]	IC50 ([4]; MTT)	IC50 [5]	IC50 [6]	IC50 [7]	IC50 ([3]; Homo sapiens)	IC50 ([5]; Homo sapiens, Fibroblast)	also measured
24.3 ± 2.34 µM	12.1 ± 1.22 µM	230 to 232 °C	25.1 ± 2.15 µM	30.2 ± 2.45 µM	COC1=CC2C(=Nc3nnc(-c4ccc(OC)cc4)s3)c3ccccc3NC2C=C1 (stereo not shown) [6c, 7-methoxy-N-(5-(4-methoxyphenyl)-1,3,4-thiadiazol-2-yl)-10,10a-dihydroacridin-9(8aH)-imine]							> 100 µM	65.2 ± 3.92 µM	
> 100 µM	26.7 ± 3.35 µM	258 to 260 °C	> 100 µM	> 100 µM	COC1=CC2C(=Nc3nnc(-c4ccc([N+](=O)[O-])cc4)s3)c3ccccc3NC2C=C1 (stereo not shown) [6d, 7-methoxy-N-(5-(4-nitrophenyl)-1,3,4-thiadiazol-2-yl)-10,10a-dihydroacridin-9(8aH)-imine]							> 100 µM	> 100 µM	
13.9 ± 1.37 µM	12.3 ± 1.96 µM	276 to 278 °C	40.3 ± 2.19 µM	55.7 ± 3.28 µM	CC1=CC2C(=Nc3nnc(-c4ccncc4)s3)c3ccccc3NC2C=C1 (stereo not shown) [6f, 7-methyl-N-(5-(pyridin-4-yl)-1,3,4-thiadiazol-2-yl)-10,10a-dihydroacridin-9(8aH)-imine]							37.2 ± 2.12 µM	45.4 ± 2.18 µM	
19.3 ± 1.05 µM	9.01 ± 1.32 µM	294 to 296 °C	31.2 ± 3.27 µM	25.9 ± 1.83 µM	CC1=CC2C(=Nc3nnc(-c4ccccc4)s3)c3ccccc3NC2C=C1 (stereo not shown) [6g, 7-methyl-N-(5-phenyl-1,3,4-thiadiazol-2-yl)-10,10a-dihydroacridin-9(8aH)-imine]			9.95 ± 1.03 µM				> 100 µM	76.5 ± 2.79 µM	area of blood vessels ([2]; zebrafish embryos): could reduce the area of blood vessels
15.5 ± 1.98 µM	13 ± 1.89 µM	258 to 260 °C	48.5 ± 3.06 µM	13.9 ± 1.83 µM	CC1=CC2C(=Nc3nnc(-c4ccc(Cl)cc4)s3)c3ccccc3NC2C=C1 (stereo not shown) [6j, 7-methyl-N-(5-(4-chlorophenyl)-1,3,4-thiadiazol-2-yl)-10,10a-dihydroacridin-9(8aH)-imine]							51.2 ± 3.09 µM	56.2 ± 3.16 µM	
